From patent publication US20070265451A1, “Process for the preparation of oxazolidinones and method of use thereof” (Board of Trustees of Michigan State University, priority 2001, published 2007)
Converted amounts (≈) assume the structure as drawn.

What follows are compounds tested on Staphylococcus aureus 29213 (assay: Broth microdilution MIC, Staphylococcus aureus ATCC 29213). Conditions: Staphylococcus aureus, ATCC29212, Table 1; SA, strain ATCC 29212; read-out: MIC90-100 SA ATCC 29212.
Assay type: cell-based
Excerpt: (§1) See, NCCLS document M7-A5. Methods for Dilution Antimicrobial Susceptibility Tests for Bacteria That Grow Aerobically; Approved Standard-Fifth Edition. Volume 20, Number 2. January 2000, (ISBN 1-56238-394-9) and Lorian V. Antibiotics. Laboratory Medicine. 4th ed. Baltimore: Williams and Wilkins, pp. 52-111 (1996). For subsequent testing, the following strains have been used: Staphylococcus aureus NRS4 (992; HIP5836; New Jersey) (Smith et al., New Engl. J. Med. 340: 493-501 (1999); Tenover et al., J. Clin. Microbiol. 36: 1020-1027 (1998)), Staphylococcus aureus NRS3 (963sm; HIP5827; Michigan) (Smith et al., ibid.; Tenover et al., ibid.), Staphylococcus aureus NRS103 (Becker) (Karakawa and Vann, Sem. Infect. Dis. 4: 285 (1982), Staphylococcus aureus NRS102 (Reynolds) Karakawa and Vann, ibid; McMurray et al., JID 162: 759-762 (1990)), Staphylococcus epidermidis NRS101 (ATCC 35984), Streptococcus pneumoniae (ATCC 49619), Enterococcus faecalis (ATCC 51299), and Staphylococcus aureus (ATCC 43300.
(§2) Stock cultures of these strains were obtained by seeding colonies from overnight streak plates (Tryptic Soy Agar II (TSAII) and 5% sheep's blood (SB) agar plates: Becton Dickinson, CA#2211261) into sterile Mueller-Hinton Broth (MHB)(Becton Dickinson, CA#211443) and growing the suspensions to mid-late log phase in 13 mL screw-cap tubes. Glycerol (Sigma, CA#G-6279) was sterilized by autoclaving for 15 minutes at 121° C. in 6 mL volumes, and then stored at 2-8° C. This was diluted to 20% in dH2O, and then added 1:1 (250 μL:250 μL, 10% final glycerol concentration) to the logarithmically growing bacterial suspension of each strain. Tubes were frozen and stored at −70° C. Purity of the stock cultures was tested by thawing one tube of each strain in a water bath at 37° C. and plating them on TSAII with 5% SB. Plates were incubated overnight at 37° C. and colonies were examined for morphology. Growth curves and approximate CFU/mL were also obtained.
(§3) High purity substituted oxazolidinones prepared according to the method of the present invention and a ZYVOX standard (ZYVOX is a trade name for linezolid available from Pharmacia Corporation) were provided by Synthon Corporation, Monmouth Junction, N.J. Compounds were dissolved at 10 mg/mL in DMSO, as after a dilution of approx. 39.0 to reach the desired final starting concentration of 256 ug/ml, the concentration of DMSO is approximately 2.5%. Compounds were then stored at room temperature (25° C.) in the dark.
(§4) Antimicrobial susceptibility screening was as follows. All compounds were initially screened for activity in duplicate at 256 μg/mL (2.5% DMSO), including ZYVOX, the positive control for antimicrobial activity. A single well of bacterially inoculated 2.5% DMSO served as a positive control for bacterial growth, while a well of DMSO inoculated with of 50 μL of sterile 0.9% saline served as a negative growth control. Controls were prepared on every microplate, so that 46 was the maximum number of compounds that were screened per plate. Broth was pipetted into sterile microcentrifuge tubes, to which the compounds were then added (1:19.53 dilution or 2× final concentration). Each tube was vortexed, and 50 μL was immediately transferred to the microplate wells for each strain. Solubility was assessed by visual observation. MB (medium broth solubility) was recorded if the solution appeared only slightly cloudy. LB (low broth solubility) was recorded if the solution was extremely cloudy, and especially if larger, clumpy precipitates formed. Bacteria were grown as described above, although absorbance was measured at 650 nm and bacteria were diluted to an initial OD of 0.12-0.15. Bacteria were then further diluted 1:100 with 0.9% sterile saline. Within 15 minutes of this final dilution, 50 μL of this suspension was added to each well for a final volume of […], and a final bacterial concentration of 1×10^5 CFU/mL (except for the negative control well). Plates were grown as above and all observations were recorded. […]

Row | Structure (SMILES) | MIC90
1 | COc1ccc(C(=O)CN2C[C@@H](COS(=O)(=O)c3ccc(Cl)c4nonc34)OC2=O)cc1 [Compound 207] | 64 to 125 µg/mL (≈ 133 to 259 µM)
2 | CC(C)N1C[C@@H](COS(=O)(=O)c2ccc([N+](=O)[O-])cc2)OC1=O [Compound 253] | 8 to 16 µg/mL (≈ 23.2 to 46.5 µM)
3 | CN(C)C(=O)CN1C[C@@H](COS(=O)(=O)c2ccc([N+](=O)[O-])cc2)OC1=O [Compound 1021] | 16 to 32 µg/mL (≈ 41.3 to 82.6 µM)
4 | CN1C[C@@H](CNSc2ccc([N+](=O)[O-])cc2)OC1=O [Compound 1687] | 2 µg/mL (≈ 7.06 µM)

Same assay, conditions: Staphylococcus aureus, ATCC29213, Table 2; read-out: MIC(90-100) SA-ATCC 29213

Row | Structure (SMILES) | MIC
5 | CC(C)N1C[C@@H](COS(=O)(=O)c2ccc([N+](=O)[O-])cc2)OC1=O [Compound 253] | 15.6 µg/mL (≈ 45.3 µM)
6 | CN(C)C(=O)CN1C[C@@H](COS(=O)(=O)c2ccc([N+](=O)[O-])cc2)OC1=O [Compound 1021] | 32 µg/mL (≈ 82.6 µM)

Each compound was assayed on Enterococcus faecalis 29212 (assay: Broth microdilution MIC, Enterococcus faecalis ATCC 29212). Conditions: Enterococcus faecalis, ATCC29213, Table 1; EF, strain printed ATCC 29213; read-out: MIC90-100 EF ATCC 29213.
Assay type: cell-based

Row | Structure (SMILES) | MIC90
7 | COc1ccc(C(=O)CN2C[C@@H](COS(=O)(=O)c3ccc(Cl)c4nonc34)OC2=O)cc1 [Compound 207] | 250 µg/mL (≈ 519 µM)
8 | CC(C)N1C[C@@H](COS(=O)(=O)c2ccc([N+](=O)[O-])cc2)OC1=O [Compound 253] | 250 µg/mL (≈ 726 µM)
9 | CN(C)C(=O)CN1C[C@@H](COS(=O)(=O)c2ccc([N+](=O)[O-])cc2)OC1=O [Compound 1021] | 250 µg/mL (≈ 645 µM)
10 | CN1C[C@@H](CNSc2ccc([N+](=O)[O-])cc2)OC1=O [Compound 1687] | 2 µg/mL (≈ 7.06 µM)

These compounds were tested on Staphylococcus aureus NRS4 (992; HIP5836; New Jersey) (assay: Broth microdilution MIC, MR SA New Jersey). Conditions: Staphylococcus aureus, NRS4, methicillin resistant SA, strain New Jersey; read-out: MIC90-100 MR SA New Jersey.
Assay type: cell-based
Excerpt: as §1, §2, §3, §4

Row | Structure (SMILES) | MIC90
11 | CC(C)N1C[C@@H](COS(=O)(=O)c2ccc([N+](=O)[O-])cc2)OC1=O [Compound 253] | 256 µg/mL (≈ 743 µM)
12 | CN(C)C(=O)CN1C[C@@H](COS(=O)(=O)c2ccc([N+](=O)[O-])cc2)OC1=O [Compound 1021] | 256 µg/mL (≈ 661 µM)
13 | CN1C[C@@H](CNSc2ccc([N+](=O)[O-])cc2)OC1=O [Compound 1687] | 2 µg/mL (≈ 7.06 µM)

Each compound was assayed on Staphylococcus aureus NRS3 (963sm; HIP5827; Michigan) (assay: Broth microdilution MIC, MR SA Michigan). Conditions: Staphylococcus aureus, NRS3, methicillin resistant SA, strain Michigan; read-out: MIC90-100 MR SA Michigan.
Assay type: cell-based
Excerpt: as §1, §2, §3, §4

Row | Structure (SMILES) | MIC90
14 | CC(C)N1C[C@@H](COS(=O)(=O)c2ccc([N+](=O)[O-])cc2)OC1=O [Compound 253] | 256 µg/mL (≈ 743 µM)
15 | CN(C)C(=O)CN1C[C@@H](COS(=O)(=O)c2ccc([N+](=O)[O-])cc2)OC1=O [Compound 1021] | 256 µg/mL (≈ 661 µM)
16 | CN1C[C@@H](CNSc2ccc([N+](=O)[O-])cc2)OC1=O [Compound 1687] | 2 µg/mL (≈ 7.06 µM)

The compounds below were run on Enterococcus faecalis (ATCC 51299) (assay: Broth microdilution MIC, Enterococcus faecalis ATCC 51299). Conditions: ATCC51299, vancomycin sensitive EF, ATCC 51299, read-out: MIC90-100 VS EF ATCC 51299.
Assay type: cell-based
Excerpt: as §1, §2, §3, §4

Row | Structure (SMILES) | MIC90
17 | CC(C)N1C[C@@H](COS(=O)(=O)c2ccc([N+](=O)[O-])cc2)OC1=O [Compound 253] | > 256 µg/mL
18 | CN(C)C(=O)CN1C[C@@H](COS(=O)(=O)c2ccc([N+](=O)[O-])cc2)OC1=O [Compound 1021] | > 256 µg/mL

What follows are compounds tested on Staphylococcus aureus (ATCC 43300) (assay: Broth microdilution MIC, MR SA ATCC 43300). Conditions: ATCC43300, methicillin resistant SA, read-out: MIC90-100 MR SA ATCC 43300.
Assay type: cell-based
Excerpt: as §1, §2, §3, §4

Row | Structure (SMILES) | MIC90
19 | CC(C)N1C[C@@H](COS(=O)(=O)c2ccc([N+](=O)[O-])cc2)OC1=O [Compound 253] | > 256 µg/mL
20 | CN(C)C(=O)CN1C[C@@H](COS(=O)(=O)c2ccc([N+](=O)[O-])cc2)OC1=O [Compound 1021] | 100 µg/mL (≈ 258 µM)

The compounds below were run on Staphylococcus aureus NRS102 (Reynolds) (assay: Broth microdilution MIC, Pen. R SA Reynolds). Conditions: strain Reynolds, read-out: MIC90-100 Pen. R SA Reynolds.
Assay type: cell-based
Excerpt: as §1, §2, §3, §4

Row | Structure (SMILES) | MIC90
21 | CN1C[C@@H](CNSc2ccc([N+](=O)[O-])cc2)OC1=O [Compound 1687] | 3 µg/mL (≈ 10.6 µM)

What follows are compounds tested on Staphylococcus aureus NRS103 (Becker) (assay: Broth microdilution MIC, Ref SA Becker). Conditions: strain Becker, read-out: MIC90-100 Ref SA Becker.
Assay type: cell-based
Excerpt: as §1, §2, §3, §4

Row | Structure (SMILES) | MIC90
22 | CN1C[C@@H](CNSc2ccc([N+](=O)[O-])cc2)OC1=O [Compound 1687] | 3 µg/mL (≈ 10.6 µM)

The compounds below were run on Myeloid bone marrow cells (assay: Bone marrow cell growth inhibition, myeloid). Conditions: not given.
Assay type: cell-based
Excerpt: (§5) In general, many of the substituted oxazolidinones were as effective as ZYVOX.

Row | Structure (SMILES) | IC50
23 | COc1ccc(C(=O)CN2C[C@@H](COS(=O)(=O)c3ccc(Cl)c4nonc34)OC2=O)cc1 [Compound 207] | 0.8 µg/mL (≈ 1.66 µM)
24 | CC(C)N1C[C@@H](COS(=O)(=O)c2ccc([N+](=O)[O-])cc2)OC1=O [Compound 253] | 30 µg/mL (≈ 87.1 µM)
25 | CN(C)C(=O)CN1C[C@@H](COS(=O)(=O)c2ccc([N+](=O)[O-])cc2)OC1=O [Compound 1021] | 20 µg/mL (≈ 51.6 µM)
26 | CN1C[C@@H](CNSc2ccc([N+](=O)[O-])cc2)OC1=O [Compound 1687] | 20 µg/mL (≈ 70.6 µM)

What follows are compounds tested on Erythroid bone marrow cells (assay: Bone marrow cell growth inhibition, erythroid). Conditions: not given.
Assay type: cell-based
Excerpt: as §5

Row | Structure (SMILES) | IC50
27 | COc1ccc(C(=O)CN2C[C@@H](COS(=O)(=O)c3ccc(Cl)c4nonc34)OC2=O)cc1 [Compound 207] | 0.2 µg/mL (≈ 0.415 µM)
28 | CC(C)N1C[C@@H](COS(=O)(=O)c2ccc([N+](=O)[O-])cc2)OC1=O [Compound 253] | 7 µg/mL (≈ 20.3 µM)
29 | CN(C)C(=O)CN1C[C@@H](COS(=O)(=O)c2ccc([N+](=O)[O-])cc2)OC1=O [Compound 1021] | 20 µg/mL (≈ 51.6 µM)
30 | CN1C[C@@H](CNSc2ccc([N+](=O)[O-])cc2)OC1=O [Compound 1687] | 0.01 µg/mL (≈ 0.0353 µM)

What follows are compounds tested on Megakaryocytic bone marrow cells (assay: Bone marrow cell growth inhibition, megakaryocytic). Conditions: not given.
Assay type: cell-based
Excerpt: as §5

Row | Structure (SMILES) | IC50
31 | COc1ccc(C(=O)CN2C[C@@H](COS(=O)(=O)c3ccc(Cl)c4nonc34)OC2=O)cc1 [Compound 207] | 3 µg/mL (≈ 6.23 µM)
32 | CC(C)N1C[C@@H](COS(=O)(=O)c2ccc([N+](=O)[O-])cc2)OC1=O [Compound 253] | 10 µg/mL (≈ 29 µM)
33 | CN(C)C(=O)CN1C[C@@H](COS(=O)(=O)c2ccc([N+](=O)[O-])cc2)OC1=O [Compound 1021] | 0.9 µg/mL (≈ 2.32 µM)
34 | CN1C[C@@H](CNSc2ccc([N+](=O)[O-])cc2)OC1=O [Compound 1687] | 6 µg/mL (≈ 21.2 µM)
